# Laboratory results from patent publication US10316061B2, “Synthesis of cell penetrating peptides for drug delivery and stem cell applications” (Temple University-Of The Commonwealth System of Higher …, priority 2014, dated 2019).
# Experiments:
# HEK293 cells = test: Live-cell / confocal uptake of ROX-labeled PepA derivatives in HEK293; format: cell-based; conditions: HEK293 cultures; ROX dye label
# Description: FIG. 9 is a series of images depicting live-cell uptake of bioactive peptide A (PepA) labeled with the ROX Dye. Bioconjugation with palmitic acid (C16 tail) and/or CPP AAAAEK (PepX) attachments increased cellular uptake in HEK293 cultures.
# FIG. 11 is a series of images depicting laser-scanning confocal microscope imaging of bioactive peptide A (PepA) labeled with the ROX dye. Bioconjugation with palmitic acid (C16 tail) and/or CPP AAAAEK (PepX) attachments increased cellular uptake in HEK293 cultures.
# Bioactive (model) peptide A (PepA) and CPP X (PepX) were synthesized via solid phase peptide synthesis (SPPS) methods (Suh et al., 2001 Comprehen. Biomat 4: 219-245; Suh et al., 2013 Polymer Adhesion, Friction and Lubrication 283-317 (Wiley)). Fmoc-deprotection was performed with organic bases such as 4-methyl piperidine and DBU in DMF at room temperature. Coupling reaction was performed in the presence of Fmoc-protected amino acids with the mixture of coupling reagents and organic bases (e.g., HBTU, HOBt and DIEA). The cleaved peptide from the resin was purified by HPLC, collected, and stored for future uses. HEK293 and ReNcell VM cell lines were maintained and utilized for cellular experiments. Live-Cell imaging analysis was performed on an Olympus IX81 and IX83-DSU wide-field spinning disc confocal microscope equipped with an LCI Chamlide stage-top incubator unit. […]
# ReNcell VM = test: RT-qPCR analysis of neural marker gene expression in differentiated ReNcell VM; format: cell-based, human
# Protocol: Differentiated stem cells were cultured for 10 weeks.
# The statistical significance was evaluated compared to the control (differentiated ReNcell VM without chemicals) *P<0.05, **P<0.01. GAPDH served as control.
# Total mRNA was extracted using mRNA isolation kit (Ambion, Life Technologies) according to the manufacturer's protocol. For higher yield, neural stem cells from eight wells in the same culture plate were homogenized in cell lysis buffer.
# Concentrations of mRNA samples were evaluated based on OD260/OD280. mRNA samples were reverse transcribed using reverse transcription kit (Applied Biosystems). PCR amplification of cDNA was carried out using universal PCR master mix (Applied Biosystems) and gene-specific primer sets (Applied Biosystems). These primers included neural stem cell (Nestin, SOX2), immature neuron (Tubb3), mature neuron (MAP2), and astrocyte (GFAP) specific genes. GAPDH was used as a control (house keeping gene). The cycles for RT-PCR consisted of 1 second denaturation at 95° C., 20 second annealing at 60° C. RT-PCR products were analyzed using Mastercycler ep realplex 4 (Eppendorf).
# ReNcell VM cells = test: Immunocytochemistry of Tubb3 / MAP2 protein expression in 4-week differentiated ReNcell VM; format: cell-based, human
# Protocol: FIG. 15. Tubb3 Expression Analysis for 4-Week Differentiated ReNcell VM Cells. ReNcell VM cells were treated with neural stem cell culture medium (control), RA (retinoic acid), RA-PepB, C16-PepB, LiCl, and IFNγ (interferon gamma). Tubb3 proteins expressed in the cells were stained as green and cell nuclei were stained with blue (DAPI).
# FIG. 16. MAP2 Expression Analysis for 4-Week Differentiated ReNcell VM Cells. ReNcell VM treated with cell culture media (control), RA, RA-PepB, C16-PepB, LiCl, and IFNγ (interferon gamma). MAP2 proteins expressed in the cells were stained as green and cell nuclei were stained with blue (DAPI) FIG. 17. Quantitation of Immunocytochemistry Results for Tubb3/MAP2 Proteins. Relative numbers of the cells expressing Tubb3 and MAP2 proteins were counted and normalized to the control group (*P<0.05, **P<0.01).
# The proteins expressed in ReNcell VM cells were visualized with antibodies to study the protein expression by the differentiation of the stem cells in the presence of various soluble factors including RA-PepB and C16-PepB. […] As is shown in FIGS. 15 and 16, Tubb3 or MAP2 expression levels in 4-week differentiated ReNcell VM cells were evaluated via immunocytochemistry (ICC). Protein expression, after antibody staining, was visualized and quantitatively compared by counting Tubb3 or MAP2-positive cells. […]
molecule,measurement,setting,value
AAAAEK(A) [PepB],live-cell uptake (FIG. 9),HEK293 cells,increased cellular uptake of multiple peptides in a synergistic manner
same,neuronal differentiation by qRT-PCR (FIGS. 12 and 13),"ReNcell VM; 1 to 4 weeks of differentiation, GAPDH control",increased neuronal differentiations
"CC1=C(/C=C/C(C)=C/C=C/C(C)=C/C(=O)O)C(C)(C)CCC1 [RA, Retinoic acid]",cytotoxicity in differentiation culture (FIG. 6),ReNcell VM; differentiated stem cells cultured for 10 weeks,Highly cytotoxic; low cell count among results
"[Cl-].[Li+] [LiCl, lithium chloride]","Tubb3 expression compared to the control (ICC, positive cell count)",ReNcell VM cells,statistically significant increases
